The record followed here is patent publication US20010046987A1, “Oxazolidinones having a sulfoximine functionality” (priority 1999, published 2001).

Values after ≈ are worked out from the molar mass of the structure shown.

One data set concerns Streptococcus pyogenes. In words: MIC by agar dilution, SPYO 152. The class given is cell-based. Particulars: for MIC: Streptococcus pyogenes, strain SPYO 152, read-out: Antibacterial Activity Minimum Inhibitory Concentration SPYO 152. An excerpt: (§1) The in vitro activity of compounds of this invention can be assessed by standard testing procedures such as the determination of minimum inhibitory concentration (MIC) by agar dilution as described in “Approved Standard.
Background: In agar dilution the substance is mixed into plates at graded concentrations.

Another data set has as its system Enterococcus faecalis. In words: MIC by agar dilution, EFAE 9217. The class given is cell-based. To be noted: for MIC: Enterococcus faecalis, strain EFAE 9217, read-out: Antibacterial Activity Minimum Inhibitory Concentration EFAE 9217.
From the text: as §1

The next data set concerns Streptococcus pneumoniae. In words: MIC by agar dilution, SPNE 9912. The class given is cell-based. Particulars: for MIC: Streptococcus pneumoniae, strain SPNE 9912, read-out: Antibacterial Activity Minimum Inhibitory Concentration SPNE 9912.
From the text: as §1

For the next data set, the system named is Moraxella catarrhalis. As to the kind of experiment: MIC by agar dilution, MCAT 30607. Particulars: for MIC: Moraxella catarrhalis, strain MCAT 30607, read-out: Antibacterial Activity Minimum Inhibitory Concentration MCAT 30607. Type of data set: cell-based.
From the text: as §1

For another data set, the system named is H. influenzae. In words: MIC by agar dilution, HINF 30063. Type of data set: cell-based. Particulars: for MIC: Haemophilus influenzae, strain HINF 30063, read-out: Antibacterial Activity Minimum Inhibitory Concentration HINF 30063.
From the text: as §1

The test system of another data set is Staphylococcus aureus. In words: MIC by agar dilution, SAUR 9213. Type of data set: cell-based. To be noted: for MIC: Staphylococcus aureus, strain SAUR 9213, read-out: Antibacterial Activity Minimum Inhibitory Concentration SAUR 9213.
From the text: as §1

Data set [1] has as its system Staphylococcus epidermidis. As to the kind of experiment: MIC by agar dilution, SEPI 30593. Type of data set: cell-based. To be noted: for MIC: Staphylococcus epidermidis, strain SEPI 30593, read-out: Antibacterial Activity Minimum Inhibitory Concentration SEPI 30593.
From the text: as §1

The subject of another data set is Enterococcus faecium. In words: MIC by agar dilution, EFAE 12712. The class given is cell-based. To be noted: for MIC: Enterococcus faecium, strain EFAE 12712, read-out: Antibacterial Activity Minimum Inhibitory Concentration EFAE 12712.
From the text: as §1

`CCC(=S)NC[C@H]1CN(c2ccc(N3CCS(=N)(=O)CC3)c(F)c2)C(=O)O1` [Example 2, N-({(5S)-3-[3-Fluoro-4-(1-imino-1-oxido-1λ^4,4-thiazinan-4-yl)phenyl]-2-oxo-1,3-oxazolidin-5-yl}methyl)propanethioamide] displayed a melting point of 189 to 190 °C. The MIC in the data set on Streptococcus pyogenes is 0.25 mg/L (≈ 0.603 µM). Further, the MIC in the data set on Enterococcus faecalis worked out at 0.5 mg/L (≈ 1.21 µM). Moreover, the MIC in the data set on Streptococcus pneumoniae amounted to 0.25 mg/L (≈ 0.603 µM). In the data set on Moraxella catarrhalis, the MIC stood at 2 mg/L (≈ 4.82 µM). For the same compound, in the data set on H. influenzae, the MIC is 2 mg/L (≈ 4.82 µM). Besides, the MIC in the data set on Staphylococcus aureus was 1 mg/L (≈ 2.41 µM). In addition, in data set [1], the MIC was 0.25 mg/L (≈ 0.603 µM). Besides, the MIC in the data set with Enterococcus faecium was determined as 0.5 mg/L (≈ 1.21 µM).
For `N=S1(=O)CCN(c2ccc(N3C[C@H](CNC(=S)C4CC4)OC3=O)cc2F)CC1` [Example 3, N-({(5S)-3-[3-Fluoro-4-(1-imino-1-oxido-1λ^4,4-thiazinan-4-yl)phenyl]-2-oxo-1,3-oxazolidin-5-yl}methyl)cyclopropanecarbothioamide], the melting point was 209 to 210 °C (dec.). Also, the MIC in the data set with Streptococcus pyogenes worked out at 0.25 mg/L (≈ 0.586 µM). Besides, the MIC in the data set on Enterococcus faecalis stood at 1 mg/L (≈ 2.34 µM). In the data set on Streptococcus pneumoniae, the MIC worked out at 0.25 mg/L (≈ 0.586 µM). The MIC in the data set with Moraxella catarrhalis was found to be 1 mg/L (≈ 2.34 µM). The MIC in the data set with H. influenzae worked out at 4 mg/L (≈ 9.38 µM). Besides, the MIC in the data set on Staphylococcus aureus amounted to 1 mg/L (≈ 2.34 µM). Moreover, in data set [1], the MIC was determined as 0.25 mg/L (≈ 0.586 µM). Also, the MIC with Enterococcus faecium was determined as 0.5 mg/L (≈ 1.17 µM).
`CC[N-][S@+2]1([O-])CC[C@@H](c2ccc(N3C[C@H](CNC(=S)CC)OC3=O)cc2F)CC1` [Example 15, N-({(5S)-3-[3-Fluoro-4-[1-(ethylimino)-1-oxidohexahydro-1λ^4-thiopyran-4-yl]phenyl]-2-oxo-1,3-oxazolidin-5-yl}methyl)propanethioamide, Z-isomer] displayed a melting point of 200 to 201 °C. Also, the MIC in the data set on Streptococcus pyogenes amounted to 0.5 mg/L (≈ 1.13 µM). Moreover, the MIC with Enterococcus faecalis was determined as 1 mg/L (≈ 2.26 µM). Also, the MIC in the data set with Streptococcus pneumoniae stood at 0.5 mg/L (≈ 1.13 µM). In addition, the MIC in the data set with Moraxella catarrhalis was determined as 2 mg/L (≈ 4.53 µM). For the same compound, the MIC in the data set with H. influenzae is 8 mg/L (≈ 18.1 µM). The MIC with Staphylococcus aureus is 2 mg/L (≈ 4.53 µM). Besides, the MIC in data set [1] was found to be 1 mg/L (≈ 2.26 µM). Besides, the MIC in the data set with Enterococcus faecium was determined as 1 mg/L (≈ 2.26 µM).
Consider `CCC(=S)NCC1CN(c2ccc(C3CC[S+2]([O-])([N-]C(=O)OC)CC3)c(F)c2)C(=O)O1` [Example 19, N-({(5S)-3-[3-Fluoro-4-(1-[(methoxycarbonyl)imino]-1-oxidohexahydro-1λ^4-thiopyran-4-yl)phenyl]-2-oxo-1,3-oxazolidin-5-yl}methyl)propanethioamide, Z-isomer], for which the melting point was in the range of 217 to 218 °C. Further, in the data set with Streptococcus pyogenes, the MIC turned out to be 0.25 mg/L (≈ 0.53 µM). The MIC in the data set with Streptococcus pneumoniae is 0.25 mg/L (≈ 0.53 µM). In addition, the MIC in the data set with Moraxella catarrhalis was 2 mg/L (≈ 4.24 µM). The MIC with H. influenzae was 2 mg/L (≈ 4.24 µM). Also, the MIC with Staphylococcus aureus was 1 mg/L (≈ 2.12 µM). In addition, the MIC in data set [1] was 0.5 mg/L (≈ 1.06 µM). Moreover, in the data set with Enterococcus faecium, the MIC worked out at 1 mg/L (≈ 2.12 µM).
For the compound `CN=S1(=O)CCN(c2ccc(N3C[C@H](CNC(C)=O)OC3=O)cc2F)CC1` [PREP 3, N-({(5S)-3-[3-Fluoro-4-(1-methylimino-1-oxido-1λ^4,4-thiazinan-4-yl)phenyl]-2-oxo-1,3-oxazolidin-5-yl}methyl)acetamide], the “Antibacterial Activity Minimum Inhibitory Concentration SPYO 152” value with Streptococcus pyogenes (strain SPYO 152) stood at 2 µg/mL. Further, in the data set with Enterococcus faecalis (strain EFAE 9217), the “Antibacterial Activity Minimum Inhibitory Concentration EFAE 9217” value was 4 µg/mL. The “Antibacterial Activity Minimum Inhibitory Concentration SPNE 9912” value in the data set with Streptococcus pneumoniae (strain SPNE 9912) amounted to 1 µg/mL. For the same compound, the “Antibacterial Activity Minimum Inhibitory Concentration MCAT 30607” value with Moraxella catarrhalis (strain MCAT 30607) worked out at 8 µg/mL. Further, the “Antibacterial Activity Minimum Inhibitory Concentration HINF 30063” value in the data set on H. influenzae (strain HINF 30063) worked out at 16 µg/mL. Also, the “Antibacterial Activity Minimum Inhibitory Concentration SAUR 9213” value in the data set on Staphylococcus aureus (strain SAUR 9213) was found to be 16 µg/mL. For the same compound, the “Antibacterial Activity Minimum Inhibitory Concentration SEPI 30593” value in data set [1] (strain SEPI 30593) is 2 µg/mL. Further, in the data set on Enterococcus faecium (strain EFAE 12712), the “Antibacterial Activity Minimum Inhibitory Concentration EFAE 12712” value is 4 µg/mL.

The melting point is the temperature, or range, at which the solid turns liquid.
